These results are taken from patent publication US10526402B2, “Anti-TGF-beta antibody for the treatment of fanconi anemia” (Dana-Farber Cancer Institute, Inc., priority 2015, dated 2020).

One series concerns U2OS cells. The experiment in a line: Homologous recombination assay with DR-GFP reporter. It counts as cell-based. The settings on record: 10 μM B02, FIG. 8D. As for the experimental part:
(§1) (A) Experimental scheme for inhibition of TGF-β Pathway in mice. WT or Fancd2−/− mice were treated with isotype or 1D11 antibody (10 mg/kg) for 48h, and bone marrow HSCs were sorted for gene expression profile and cell cycle analysis. […] Cell cycle analysis of HSCs from WT or Fancd2−/− mice treated with isotype or 1D11 antibody for 48h is shown. Error bars represent mean±s.e.m. (n=4 mice per group). […] Homologous recombination assay was measured in U2OS cells with DR-GFP reporter after treatment with […] RI-1 and 10 μM B02. The representative of two independent experiments is presented; error bars represent mean±s.e.m. […] GM6914 (FA-A) cells or corrected GM6914+FANCA cells were treated with 1 μM MMC and 10 μM inhibitors for 6h before immunofluorescence analysis. Representative images (E) and quantification (F) of RAD51 foci are shown. […] HSPCs from WT or Fancd2−/− mice were treated with B02 (10 μM) or RI-1 ([…]) in vitro for five days and survival was determined. […] HSPCs from WT or Fancd2−/− mice were exposed to 1D11 (10 μg/mL) and RAD51 inhibitors (10 μM) for 30 min followed by exposure to acetaldehyde for 4 hrs. The cells were then washed and cultured in presence of 1D11 and RAD51 inhibitors for 7-9 days, and hematopoietic colonies were counted.

Another series concerns GM6914 (FA-A) cells. The experiment in a line: RAD51 foci formation by immunofluorescence. In kind it is cell-based. The settings on record: 1 μM MMC and 10 μM inhibitors for 6h; FIG. 8E, F. As for the experimental part: as §1
Cells were grown on coverslip for 24 hours before treated with MMC. […]

Series [1] has as its system HSPCs from WT or Fancd2−/− mice. The experiment in a line: Cytotoxicity of RAD51 inhibitors in HSPCs. In kind it is cell-based, mouse. The conditions noted are these: B02 (10 μM) or RI-1 (1004) in vitro for five days; FIG. 8G. The method, then:
as §1

The subject of the next series is Fancd2−/− stromal cells. The experiment in a line: Survival of stromal cells in the presence of MMC. In kind it is cell-based, mouse. The settings on record: FIG. 1A. The method, then:
For survival assays, cells were seeded at a density of 1×10^3 cells per well in 96-well plates. After 72 hours of culture in indicated concentrations of MMC or post exposure of acetaldehyde, viability was assessed using CellTiterGlo reagent (Promega). In order to assess clonogenicity, cells were seeded at a low density (500-1000 cells per well) in 6-well plates and allowed to form colonies. The cells were then fixed in methanol/20% acetic acid and stained with 1% crystal violet. Colony formation was assessed by solubilizing crystal violet stain with methanol and quantifying UV absorbance for each condition.
For survival assays, cells were seeded at a density of 1×10^3 cells per well in 96-well plates. After 3-6 days of culture in indicated concentrations of MMC or post exposure of acetaldehyde, viability was assessed using CellTiterGlo reagent (Promega). In order to assess clonogenicity, cells were seeded at a low density (500-1000 cells per well) in 6-well plates and allowed to form colonies. The cells were then fixed in methanol/20% acetic acid and stained with 1% crystal violet. Colonies were counted after crystal violet staining.

In a further series the test system is TGFβ pathway. Put plainly: Immunoblot of p-Smad2 in stromal cells. The settings on record: FIG. 1A bottom panel. In kind it is cell-based, mouse. In general terms: A western blot detects proteins with antibodies after separation by electrophoresis.
Series [2] deals with Lin− cells from WT and Fancd2−/− mice. The experiment in a line: Lin− cell growth under mTGFβ. In kind it is cell-based, mouse. The settings on record: mTGFβ 1 ng/mL; FIG. 2B. As for the experimental part: For mouse hematopoietic stem/progenitor cell culture, Lin^− cells were cultured in vitro in StemSpan SFEM media with 10 ng/mL SCF, 20 ng/mL IGF-2, 20 ng/mL TPO, 10 ng/mL heparin, and 10 ng/mL a-FGF. Half media was changed every three days. For human cord blood cells, CD34+ cells were isolated using CD34 microbead kit (Miltenyi Biotec). Cells were cultured in StemSpan SFEM media with 100 ng/mL hSCF, 100 ng/mL FLT3 ligand, 10 ng/mL TPO, 10 ng/mL IL-6. Cells were treated with 10 ug/mL 1D11 or 10 μM SD208.
To perform flow cytometry analysis, Lin^− cells were collected at day 2 and 5 post transduction and suspended in staining medium (PBS with 2% heat-inactivated calf serum), and incubated with PE-conjugated c-Kit and APC-conjugated Sca-1 antibodies were added to the cells for 30 min at 4° C. in the dark. Stem cell population (GFP^+Lin^−c-Kit^+Sca-1^+) was analyzed by FACS. All these antibodies were purchased from eBioscience.

`O=c1c2ccccc2nc(/C=C/c2cccnc2)n1Cc1ccccc1` [B02]: the “HR efficiency (DR-GFP recombination)” value with U2OS cells is recorded as “significantly decrease HR efficiency”. The RAD51 foci formation result in the series with GM6914 (FA-A) cells is on record as “efficiently block RAD51 foci formation”. Also, in series [1], the “cytotoxicity in HSPCs (survival)” value is listed as “do not show cytotoxicity”.
For `O=C1C(Cl)=C(N2CCOCC2)C(=O)N1c1ccc(Cl)c(Cl)c1` [RI-1], the “HR efficiency (DR-GFP recombination)” value with U2OS cells is recorded as “significantly decrease HR efficiency”. Moreover, in the series with GM6914 (FA-A) cells, the RAD51 foci formation result is “efficiently block RAD51 foci formation”. The “cytotoxicity in HSPCs (survival)” value in series [1] is listed as “do not show cytotoxicity”.
In the case of `Fc1ccc(Cl)cc1-c1nc(Nc2ccncc2)c2nccnc2n1` [SD208], in the series on Fancd2−/− stromal cells, the “MMC sensitivity / resistance (survival) of Fancd2−/− stromal cells” value was “restores MMC resistance”. In addition, the “activation of the TGFβ pathway (p-Smad2) in murine stromal cells” value with TGFβ pathway was “inhibition of TGFβ signaling”. Moreover, the “suppressive effect of exogenous mTGFβ on Lin− cell growth” value in series [2] is “rescued the inhibitory effect”.
